Literature values, collected in patent publication US20230225964A1, “MICROSTIRRING DEVICES AND TECHNIQUES FOR ENHANCING BIOAVAILABILITY OF ORALLY ADMINISTERED DRUGS” (The Regents of the University of California, priority 2022, published 2023).
Converted amounts (≈) assume the structure as drawn.

solubility in water: 66 mg/mL (≈ 335 mM)
Structure (SMILES): N[C@@H](Cc1ccc(O)c(O)c1)C(=O)O [L-Dopa, levodopa]
